Assay [1] has as its target T1, human DLK (Homo sapiens, UniProt Q12852).
T1 sequence (Q12852 1-859): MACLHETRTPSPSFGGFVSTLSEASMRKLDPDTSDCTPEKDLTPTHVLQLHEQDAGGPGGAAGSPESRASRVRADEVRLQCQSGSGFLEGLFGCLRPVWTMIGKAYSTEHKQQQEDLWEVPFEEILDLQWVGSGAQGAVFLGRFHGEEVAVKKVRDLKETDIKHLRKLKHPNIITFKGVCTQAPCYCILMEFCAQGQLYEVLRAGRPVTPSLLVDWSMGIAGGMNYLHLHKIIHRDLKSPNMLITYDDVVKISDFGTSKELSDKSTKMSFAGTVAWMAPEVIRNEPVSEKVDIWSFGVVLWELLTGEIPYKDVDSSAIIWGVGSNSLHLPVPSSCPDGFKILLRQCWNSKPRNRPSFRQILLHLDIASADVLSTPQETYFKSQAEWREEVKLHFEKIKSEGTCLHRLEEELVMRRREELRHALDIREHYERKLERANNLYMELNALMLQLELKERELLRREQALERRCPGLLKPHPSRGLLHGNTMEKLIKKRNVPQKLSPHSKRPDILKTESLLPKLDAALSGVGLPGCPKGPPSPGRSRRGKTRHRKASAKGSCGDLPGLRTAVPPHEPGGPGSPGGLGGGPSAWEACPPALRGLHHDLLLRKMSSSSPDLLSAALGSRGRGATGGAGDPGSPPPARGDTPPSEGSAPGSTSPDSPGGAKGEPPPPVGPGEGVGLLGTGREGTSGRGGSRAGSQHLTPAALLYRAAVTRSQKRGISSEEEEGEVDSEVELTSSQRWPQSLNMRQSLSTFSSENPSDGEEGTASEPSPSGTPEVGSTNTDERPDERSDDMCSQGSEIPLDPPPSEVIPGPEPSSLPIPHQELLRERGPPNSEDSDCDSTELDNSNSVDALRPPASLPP
The experiment in a line: DLK Kd Determinations (KINOMEscan KdELECT, DiscoveRx). Also on record: full length of human DLK (amino acids 1-859); host or cells: transiently transfected HEK293 cells; unpurified extract. The settings on record: fusion protein of full length human DLK (amino acids 1-859) and NFkB DNA binding domain; qPCR readout; duplicate. The procedure, abridged: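 Kd values were fitted by Hill equation (slope −1) from duplicate 11-point 3-fold dilutions starting at 30,000 nM. Bead-immobilized ligand competed with compound for DNA-tagged full-length human DLK fusion in HEK293 extract (final DMSO 0.9%, 1 h, room temperature), with qPCR readout of bound kinase.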
A general note: Quantitative PCR measures a nucleic acid by following its amplification.

Assay [2] deals with T1, human DLK. The experiment in a line: Phospho-cJun Cellular Assay. Format: cell-based. Also on record: expressed in transfected cells. Particulars: HEK293 cells stably transfected with Dox-inducible human DLK; p-cJun (Ser63); 5 h compound incubation. On the procedure: Phospho-cJun Cellular Assay
HEK293 cells stably transfected with a Dox-inducible human DLK were plated into a 384-well plate in 20 μl (40,000 cells/well) of DMEM medium (without phenol red) containing 10% fetal bovine serum, 1.5 μg/ml doxycycline and 1 μg/ml puromycin. The cells as negative control were grown in the absence of doxycycline. The plate was incubated at 37° C., 5% CO2 for 20 h, before DMSO (control) or compounds diluted in medium were added. The cells were incubated at 37° C. for an additional 5 h, followed by lysis and the addition detection antibodies from p-cJun (Ser63) cellular assay kit (Cisbio) per manufacturer protocol. The standard dose response curves were fitted by Genedata Screener software using the variable-slope model: Signal=Signalnegative control+(SignalDMSO control−Signalnegative control)/(1+(IC50/Dose)̂Hill slope). Only signal and dose in the equation were treated as known values.

Molecules are shown by their SMILES.

`Nc1ncc(-c2cn([C@H]3[C@@H]4CC(N5CCOCC5)C[C@@H]43)c(C3CC3)n2)cc1C(F)(F)F` (single isomer, unassigned) [Example 128a, 5-(2-cyclopropyl-1-(3-morpholinobicyclo[3.1.0]hexan-6-yl)-1H-imidazol-4-yl)-3-(trifluoromethyl)pyridin-2-amine] came in with a Kd at human DLK [1] of 40 nM. Moreover, half-maximal inhibition on human DLK [2] (IC50) was put at 748 nM.

`Nc1ncc(-c2cn([C@H]3[C@@H]4CC(N5CCOCC5)C[C@@H]43)c(C3CC3)n2)cc1C(F)(F)F` (single isomer, unassigned) [Example 128b, 5-(2-cyclopropyl-1-(3-morpholinobicyclo[3.1.0]hexan-6-yl)-1H-imidazol-4-yl)-3-(trifluoromethyl)pyridin-2-amine] registered a Kd on human DLK [1] of 22 nM. On human DLK [2], the IC50 was determined as 755 nM.

In turn, `CN1CCN(C2C[C@@H]3[C@H](C2)[C@H]3n2cc(-c3cnc(N)c(C(F)(F)F)c3)nc2C2CC2)CC1` (single isomer, unassigned) [Example 129a, 5-(2-cyclopropyl-1-(3-(4-methylpiperazin-1-yl)bicyclo[3.1.0]hexan-6-yl)-1H-imidazol-4-yl)-3-(trifluoromethyl)pyridin-2-amine] registered an equilibrium dissociation constant (Kd) on human DLK [1] of 12.8 nM. At human DLK [2], this molecule had a 50% inhibitory concentration (IC50) of 503 nM.

On human DLK [1], `CN1CCN(C2C[C@@H]3[C@H](C2)[C@H]3n2cc(-c3cnc(N)c(C(F)(F)F)c3)nc2C2CC2)CC1` (single isomer, unassigned) [Example 129b, 5-(2-cyclopropyl-1-(3-(4-methylpiperazin-1-yl)bicyclo[3.1.0]hexan-6-yl)-1H-imidazol-4-yl)-3-(trifluoromethyl)pyridin-2-amine] returned a dissociation constant Kd of 16 nM. This molecule also had an IC50 against human DLK [2] of 633 nM.

On to `CC(C)c1nc(-c2cnc(N)c(OC(F)(F)F)c2)cn1[C@H]1[C@@H]2CC(N3CCN(C)CC3)C[C@@H]21` (single isomer, unassigned) [Example 133a, 5-(2-isopropyl-1-(3-(4-methylpiperazin-1-yl)bicyclo[3.1.0]hexan-6-yl)-1H-imidazol-4-yl)-3-(trifluoromethoxy)pyridin-2-amine], for which, at human DLK [1], the dissociation constant (Kd) was 20 nM. Also, the IC50 at human DLK [2] was 896 nM.

On human DLK [1], `CC(C)c1nc(-c2cnc(N)c(OC(F)(F)F)c2)cn1[C@H]1[C@@H]2CC(N3CCN(C)CC3)C[C@@H]21` (single isomer, unassigned) [Example 133b, 5-(2-isopropyl-1-(3-(4-methylpiperazin-1-yl)bicyclo[3.1.0]hexan-6-yl)-1H-imidazol-4-yl)-3-(trifluoromethoxy)pyridin-2-amine] registered a Kd of 21 nM. The same molecule showed an IC50 against human DLK [2] of 645 nM.

Turning to `Nc1ncc(-c2cn([C@H]3[C@@H]4CC(N5CCOCC5)C[C@@H]43)c(CC3CC3)n2)cc1C(F)(F)F` (single isomer, unassigned) [Example 138a, 5-(2-(cyclopropylmethyl)-1-(3-morpholinobicyclo[3.1.0]hexan-6-yl)-1H-imidazol-4-yl)-3-(trifluoromethyl)pyridin-2-amine], the affinity at human DLK [1], expressed as Kd, was 23 nM. For the same molecule, the IC50 against human DLK [2] was 1010 nM.

Consider `Nc1ncc(-c2cn([C@H]3[C@@H]4CC(N5CCOCC5)C[C@@H]43)c(CC3CC3)n2)cc1C(F)(F)F` (single isomer, unassigned) [Example 138b, 5-(2-(cyclopropylmethyl)-1-(3-morpholinobicyclo[3.1.0]hexan-6-yl)-1H-imidazol-4-yl)-3-(trifluoromethyl)pyridin-2-amine], for which the Kd on human DLK [1] worked out at 34 nM. 1050 nM corresponded to half-maximal inhibition against human DLK [2] (IC50).

As for `Nc1ncc(-c2cn([C@H]3[C@@H]4CC(N5CCOCC5)C[C@@H]43)c(C3CC3)n2)cc1OC(F)(F)F` (single isomer, unassigned) [Example 139a, 5-(2-cyclopropyl-1-(3-morpholinobicyclo[3.1.0]hexan-6-yl)-1H-imidazol-4-yl)-3-(trifluoromethoxy)pyridin-2-amine], binding on human DLK [1] was put at a Kd of 37 nM. For the same molecule, inhibition at human DLK [2] was half-maximal at 544 nM (IC50).

As to `C[C@H]1COCCN1C1C[C@@H]2[C@H](C1)[C@H]2n1cc(-c2cnc(N)c(C(F)(F)F)c2)nc1C1CC1` (single isomer, unassigned) [Example 140a], the affinity at human DLK [1], expressed as Kd, was 32 nM. The molecule also displayed an IC50 at human DLK [2] of 834 nM.

In turn, `C[C@H]1COCCN1C1C[C@@H]2[C@H](C1)[C@H]2n1cc(-c2cnc(N)c(C(F)(F)F)c2)nc1C1CC1` (single isomer, unassigned) [Example 140b] had a Kd at human DLK [1] of 37.5 nM. The same molecule displayed an IC50 against human DLK [2] of 636 nM.

Regarding `Nc1ncc(-c2cn([C@H]3[C@@H]4CC(N5CCCOCC5)C[C@@H]43)c(C3CC3)n2)cc1C(F)(F)F` (single isomer, unassigned) [Example 141a, 5-(1-(3-(1,4-oxazepan-4-yl)bicyclo[3.1.0]hexan-6-yl)-2-cyclopropyl-1H-imidazol-4-yl)-3-(trifluoromethyl)pyridin-2-amine], on human DLK [1], the Kd was 26 nM. The IC50 on human DLK [2] turned out to be 655 nM.

Regarding `Nc1ncc(-c2cn([C@H]3[C@@H]4CC(N5CCCOCC5)C[C@@H]43)c(C3CC3)n2)cc1C(F)(F)F` (single isomer, unassigned) [Example 141b, 5-(1-(3-(1,4-oxazepan-4-yl)bicyclo[3.1.0]hexan-6-yl)-2-cyclopropyl-1H-imidazol-4-yl)-3-(trifluoromethyl)pyridin-2-amine], at human DLK [1], the affinity, expressed as Kd, was 16 nM. Also, it took 587 nM to reach half-maximal inhibition against human DLK [2] (IC50).

Consider `CC(C)c1nc(-c2cnc(N)c(OC(F)F)c2)cn1[C@H]1[C@@H]2CC(N3CCN(C)CC3)C[C@@H]21` (single isomer, unassigned) [Example 145a, 3-(difluoromethoxy)-5-(2-isopropyl-1-(3-(4-methylpiperazin-1-yl)bicyclo[3.1.0]hexan-6-yl)-1H-imidazol-4-yl)pyridin-2-amine], for which, on human DLK [1], the Kd is 39 nM. The same molecule gave an IC50 at human DLK [2] of 1200 nM.

At human DLK [1], `CC(C)c1nc(-c2cnc(N)c(OC(F)F)c2)cn1[C@H]1[C@@H]2CC(N3CCN(C)CC3)C[C@@H]21` (single isomer, unassigned) [Example 145b, 3-(difluoromethoxy)-5-(2-isopropyl-1-(3-(4-methylpiperazin-1-yl)bicyclo[3.1.0]hexan-6-yl)-1H-imidazol-4-yl)pyridin-2-amine] had a Kd of 50 nM. Further, half-maximal inhibition against human DLK [2] (IC50) required 889 nM.

With `CC(C)Cc1nc(-c2cnc(N)c(C(F)(F)F)c2)cn1[C@H]1[C@@H]2CC(N3CCN(C)CC3)C[C@@H]21` (single isomer, unassigned) [Example 146a, 5-(2-isobutyl-1-(3-(4-methylpiperazin-1-yl)bicyclo[3.1.0]hexan-6-yl)-1H-imidazol-4-yl)-3-(trifluoromethyl)pyridin-2-amine], the Kd on human DLK [1] amounted to 6.5 nM. The same molecule had an IC50 against human DLK [2] of 376 nM.

In the case of `CC(C)Cc1nc(-c2cnc(N)c(C(F)(F)F)c2)cn1[C@H]1[C@@H]2CC(N3CCN(C)CC3)C[C@@H]21` (single isomer, unassigned) [Example 146b, 5-(2-isobutyl-1-(3-(4-methylpiperazin-1-yl)bicyclo[3.1.0]hexan-6-yl)-1H-imidazol-4-yl)-3-(trifluoromethyl)pyridin-2-amine], on human DLK [1], the affinity, expressed as Kd, was 4.5 nM. In addition, half-maximal inhibition against human DLK [2] (IC50) required 346 nM.

On human DLK [1], `CN1CCN(C2C[C@@H]3[C@H](C2)[C@H]3n2cc(-c3cnc(N)c(OC(F)(F)F)c3)nc2CC2CC2)CC1` (single isomer, unassigned) [Example 151a, 5-(2-(cyclopropylmethyl)-1-(3-(4-methylpiperazin-1-yl)bicyclo[3.1.0]hexan-6-yl)-1H-imidazol-4-yl)-3-(trifluoromethoxy)pyridin-2-amine] gave a Kd of 26 nM. The molecule further yielded an IC50 at human DLK [2] of 994 nM.

For orientation: Kd means the free concentration of one partner at which half of the binding sites on the other are occupied at equilibrium, for simple one-to-one binding. The low end stands for higher affinity, the high end for lower affinity. For orientation: IC50 means the midpoint of a concentration-inhibition curve.

The values above are taken from patent US20180057507A1, “INHIBITORS OF DUAL LEUCINE ZIPPER (DLK) KINASE FOR THE TREATMENT OF DISEASE” (Board of Regents, The University of Texas System, priority 2016, published 2018).
